Measured values published in PMC12921516 (ACS Bio & Med Chem Au, 2025).

Tests used:
[1] = molecular target: T1, hPTP1B1–400 (Homo sapiens, UniProt P18031); assay: PTP1B inhibition, pNPP hydrolysis, long form; format: biochemical; conditions: pNPP substrate, 15 min 37 °C, pH 6.8; ± S.D
T1 construct: h PTP1B 1–400 IC 50 (μM ± S.D); made in house
T1 sequence (P18031 1-400): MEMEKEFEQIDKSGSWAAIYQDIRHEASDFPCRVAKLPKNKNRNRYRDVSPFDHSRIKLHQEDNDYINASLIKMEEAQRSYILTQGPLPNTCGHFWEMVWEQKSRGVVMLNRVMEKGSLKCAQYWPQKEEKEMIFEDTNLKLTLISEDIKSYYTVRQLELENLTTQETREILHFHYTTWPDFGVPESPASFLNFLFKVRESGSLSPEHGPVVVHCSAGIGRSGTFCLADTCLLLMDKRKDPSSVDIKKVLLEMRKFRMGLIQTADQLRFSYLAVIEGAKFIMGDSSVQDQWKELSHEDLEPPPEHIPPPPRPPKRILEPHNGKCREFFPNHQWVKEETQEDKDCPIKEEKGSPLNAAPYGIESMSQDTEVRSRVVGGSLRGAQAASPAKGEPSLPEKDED
Description: The inhibitory activity of PTP1B was assessed using the long form of the PTP1B enzyme (hPTP1B1–400). This enzyme comprises a highly conserved N-terminal catalytic domain, known as the PTP domain (PTP1B1–300), in addition to an intrinsically disordered regulatory domain (PTP1B301–400).
The IC50 values obtained from these tests are detailed in Table .
Aliquots of 0–10 μL of the test compounds (triplicate) were taken and incubated for 15 min at 37 °C with 85 μL of Tris buffer solution (50 mM, pH 6.8) containing PTP1B enzyme and 5 μL of p-nitrophenyl phosphate substrate (pNPP, 10 mM). The absorbance of the hydrolysis product, p-nitrophenol (pNP), was measured at 405 nm using a 96-microplate absorbance reader (Accuris SmartReader 96). The inhibitory activity was determined according to eq . %enzyme=(A405b/A405c)×100 1 Where: % enzyme is the percentage of inhibition for PTP1B or TCPTP
The IC50 was calculated using regression analysis, eq : %inhibition=A100/1+(I/IC50)^s 2 Where: A100: Maximum inhibition

[2] = molecular target: T1, hPTP1B1–400; assay: Enzymatic kinetics studies (Lineweaver–Burk, model fitting); format: biochemical; conditions: for inhibition type: hPTP1B1–400, best fit model; for Ki: hPTP1B1–400, pNPP 0.1–0.5 mM; for Km / Vmax: hPTP1B1–400 with inhibitor
Description: Kinetic analyses were conducted using varying concentrations of substrate and inhibitor.
Five increasing concentrations of each inhibitor were tested, according to their previously determined IC50 values. The negative control was prepared by omitting the inhibitor in the presence of the enzyme and substrate. The Supporting Information includes detailed eqs (E1–E5) used to determine the kinetic parameters and mechanisms involved in PTP1B inhibition.
Equation 1 was used to obtain enzyme kinetic parameters by fitting data to the Michaelis-Menten model (Origin Pro
The equations defined for the following non-linear inhibition models were used to determine the mechanism of
PTP1B inhibition: competitive (E2), non-competitive (E3), uncompetitive (E4), and mixed (E5) (Origin Pro 2018 (64
(1+ ( ))(x05nh ) + (1+ ( )) (x05 nh)
Vmax is the maximum velocity, x is the substrate concentration, i is the inhibitor concentration, nh is the number of
Hill. Ki is the inhibition constant, and Km is the Michaelis constant.

[3] = system: STZ-induced diabetic CD-1 mice; assay: Insulin tolerance test (ITT); format: in vivo; conditions: single intragastric dose 50 mg/kg, insulin 0.75 IU after 30 min
Description: The studies were carried out on compounds 4b, 4g, and 5g using both normoglycemic CD1 mice and a mouse model of noninsulin-dependent diabetes mellitus (NIDDM). An oral glucose tolerance test (OGTT) was conducted on the normoglycemic mice to evaluate the hypoglycemic activity of the compounds, while an insulin tolerance test (ITT) was performed on hyperglycemic CD1 mice to assess the compounds' capacity to enhance insulin sensitivity in streptozotocin-induced diabetic mice. Pioglitazone and GA were included as positive controls. […] Healthy six-week-old male CD-1 mice, weighing between 30 and 40 g, were maintained at a temperature of 25 ± 2 °C, under a 12-h light/dark cycle and 45-65% humidity throughout the experimental period. The mice were provided with a rodent pelleted diet (Harlan Laboratories, Indianapolis, USA) and had access to water ad libitum. Sixteen hours before the experiment, all mice were fasted but still had free access to water. All animal procedures were conducted in accordance with the Mexican Federal Regulations for Animal Experimentation and Care (SAGARPA, NOM-062-ZOO-1999, Mexico) and received approval from the Institutional Animal Care and Use Committee, following guidelines outlined in the US National Institutes of Health publication (No. 85-23, revised 1985). Streptozotocin (STZ) was dissolved in citrate buffer (pH 4.5), while nicotinamide was dissolved in a normal physiological saline solution. The noninsulin-dependent diabetes (NIDD) mouse model was induced in overnight-fasted mice through a single intraperitoneal injection of STZ (100 mg/kg). Nicotinamide was administered 15 min prior, at a dose of 20 mg/kg via intraperitoneal injection. […] Roche). […] Animals were categorized into five groups, each consisting of four mice (n = 4). The experimental groups received an oral suspension of compounds 4b, 4g, and 5g, prepared in a 10% Tween 20/water solution, at a dosage of 50 mg/kg body weight. A control group was treated with only the 10% Tween 20 solution. The final group was administered pioglitazone at a dose of 45 mg/kg, which is recognized as a reference drug for insulin sensitization. To evaluate glucose levels, blood samples were collected from the tails of the mice at 0, 30, 60, 90, and 120 min after the administration of the vehicle, test compound, or drug. Blood glucose concentration was measured using a commercial glucometer (Accu-Chek, Performa; Roche) and the enzymatic glucose dehydrogenase method. The percentage variation in glycemia was calculated by comparing the selected postadministration glycemia (G x ) with the initial value (G0) using the following formula: %[…]=[(Gx-G0)/G0]×100 where G0 represents the initial glycemia values and Gx indicates the glycemia values at +30, + 60, + 90, and +120 min, respectively. To evaluate the ability of GA derivatives to enhance insulin sensitivity in STZ-induced diabetic CD-1 mice, compounds 4b, 4g, and 5g were tested. Glycyrrhetinic acid (GA) and Pioglitazone served as positive controls. The GA derivatives and the positive controls were administered to the diabetic animals, followed by the administration of human rapid-acting insulin (0.75 IU) after 30 min. Subsequently, glucose levels were measured every 15 min.

IC50 [1] | SMILES | other results
22.4 ± 0.53 µM | CC1(C)c2[nH]c3ccc(C#N)cc3c2C[C@]2(C)[C@H]3C(=O)C=C4[C@@H]5C[C@@](C)(C(=O)O)CC[C@]5(C)CC[C@@]4(C)[C@]3(C)CC[C@@H]12 [compound 4d, (20β)-5′-Cyano-11-oxo-1′H-oleana-2,12-dieno[3,2-b]indol-29-oic Acid] | –
5.6 ± 0.12 µM | CC1(C)c2[nH]c3ccc(SC(F)(F)F)cc3c2C[C@]2(C)[C@H]3C(=O)C=C4[C@@H]5C[C@@](C)(C(=O)O)CC[C@]5(C)CC[C@@]4(C)[C@]3(C)CC[C@@H]12 [compound 4c, (20β)-5′-(Trifluormethylthio)-11-oxo-1′H-oleana-2,12-dieno[3,2-b]indol-29-oic Acid] | –
2.08 ± 0.04 µM | CC1(C)c2c(cnn2-c2ccc(SC(F)(F)F)cc2)C[C@]2(C)[C@H]3C(=O)C=C4[C@@H]5C[C@@](C)(C(=O)O)CC[C@]5(C)CC[C@@]4(C)[C@]3(C)CC[C@@H]12 [compound 5c, (20β)-11-Oxo-2′-[4-(trifluoromethylthio)phenyl]-2′H-oleana-2,12-dieno[3,2-c]pyrazol-29-oic Acid] | –
4.33 ± 0.58 µM | CC1(C)c2[nH]c3ccc(C(=O)O)cc3c2C[C@]2(C)[C@H]3C(=O)C=C4[C@@H]5C[C@@](C)(C(=O)O)CC[C@]5(C)CC[C@@]4(C)[C@]3(C)CC[C@@H]12 [compound 4e, (20β)-5′-Carboxy-11-oxo-1′H-oleana-2,12-dieno[3,2-b]indol-29-oic Acid] | inhibition type [2]: uncompetitive; Ki [2]: 4.05 ± 0.67 µM; Km [2]: 990 ± 190 µM; Vmax [2]: 1.64 ± 0.23 mM/min
2.13 ± 0.13 µM | CC1(C)c2[nH]c3ccc(OC(F)(F)F)cc3c2C[C@]2(C)[C@H]3C(=O)C=C4[C@@H]5C[C@@](C)(C(=O)O)CC[C@]5(C)CC[C@@]4(C)[C@]3(C)CC[C@@H]12 [compound 4a, (20β)-5′-(Trifluoromethoxy)-11-oxo-1′H-oleana-2,12-dieno[3,2-b]indol-29-oic Acid] | inhibition type [2]: uncompetitive; Ki [2]: 0.74 ± 0.1 µM; Km [2]: 1840 ± 190 µM; Vmax [2]: 1.06 ± 0.24 mM/min
6.19 ± 0.58 µM | CC1(C)c2c(cnn2-c2ccc(OC(F)F)cc2)C[C@]2(C)[C@H]3C(=O)C=C4[C@@H]5C[C@@](C)(C(=O)O)CC[C@]5(C)CC[C@@]4(C)[C@]3(C)CC[C@@H]12 [compound 5b, (20β)-2′-[4-(Difluoromethoxy)phenyl]-11-Oxo-2′H-oleana-2,12-dieno[3,2-c]pyrazol-29-oic Acid] | –
9.3 ± 0.25 µM | CC1(C)c2[nH]c3ccc(C(N)=O)cc3c2C[C@]2(C)[C@H]3C(=O)C=C4[C@@H]5C[C@@](C)(C(=O)O)CC[C@]5(C)CC[C@@]4(C)[C@]3(C)CC[C@@H]12 [compound 4f, (20β)-5′-Carbamoyl-11-oxo-1′H-oleana-2,12-dieno[3,2-b]indol-29-oic Acid] | –
10.3 ± 0.51 µM | CC1(C)c2c(cnn2-c2ccc(C(N)=O)cc2)C[C@]2(C)[C@H]3C(=O)C=C4[C@@H]5C[C@@](C)(C(=O)O)CC[C@]5(C)CC[C@@]4(C)[C@]3(C)CC[C@@H]12 [compound 5f, (20β)-2′-(4-Carbamoylphenyl)-11-oxo-2′H-oleana-2,12-dieno[3,2-c]pyrazol-29-oic Acid] | –
2.29 ± 0.15 µM | CC1(C)c2c(cnn2-c2ccc(OC(F)(F)F)cc2)C[C@]2(C)[C@H]3C(=O)C=C4[C@@H]5C[C@@](C)(C(=O)O)CC[C@]5(C)CC[C@@]4(C)[C@]3(C)CC[C@@H]12 [compound 5a, (20β)-11-Oxo-2′-[4-(trifluoromethoxy)phenyl]-2′H-oleana-2,12-dieno[3,2-c]pyrazol-29-oic acid] | –
6.83 ± 0.17 µM | CC1(C)c2c(cnn2-c2ccc(C#N)cc2)C[C@]2(C)[C@H]3C(=O)C=C4[C@@H]5C[C@@](C)(C(=O)O)CC[C@]5(C)CC[C@@]4(C)[C@]3(C)CC[C@@H]12 [compound 5d, (20β)-2′-(4-Cyanophenyl)-11-oxo-2′H-oleana-2,12-dieno[3,2-c]pyrazol-29-oic Acid] | –
– | CC1(C)[C@@H](O)CC[C@]2(C)[C@H]3C(=O)C=C4[C@@H]5C[C@@](C)(C(=O)O)CC[C@]5(C)CC[C@@]4(C)[C@]3(C)CC[C@@H]12 [GA, Glycyrrhetinic acid, reference compound] | glycemia variation in ITT [3]: markedly decrease glycemia variation
